Here are results for 64 substances from PMC12102759 (Protein Science : A Publication of the Protein Society, 2025).

This experiment concerns PABPC1 PABC. The format is binding, human. The following applies: DMS-BM library, bait PABPC1 PABC, row aa = residue at this position; for DMS-derived PSSM value, position A6: A = wild type.
Setting [1] is: prey ATXN2, TLNPNAKEFNPRSF(averaged) over the two overlapping peptides, F = wild type.
Where [2] appears, read: prey ATXN2, peptide KSTLNPNAKEFNPRSF, N = wild type.
[3] abbreviates: prey ATXN2, peptide KSTLNPNAKEFNPRSF, S = wild type.
Setting [4] is: prey ATXN2, peptide KSTLNPNAKEFNPRSF, T = wild type.
[5] abbreviates: prey ATXN2, peptide TLNPNAKEFNPRSFSQ, P = wild type.
The mark [6] stands for this setting: prey ATXN2, peptide TLNPNAKEFNPRSFSQ, S = wild type.
Where [7] appears, read: prey ATXN2, peptide TLNPNAKEFNPRSFSQ, R = wild type.
Setting [8] is: prey ATXN2, TLNPNAKEFNPRSF(averaged) over the two overlapping peptides, K = wild type.
Setting [9] is: prey ATXN2, peptide TLNPNAKEFNPRSFSQ
[10] abbreviates: prey ATXN2, TLNPNAKEFNPRSF(averaged) over the two overlapping peptides, N = wild type.
Where [11] appears, read: prey ATXN2, peptide KSTLNPNAKEFNPRSF, P = wild type.
Where [12] appears, read: prey ATXN2, peptide TLNPNAKEFNPRSFSQ, F = wild type.
Setting [13] is: prey ATXN2, peptide TLNPNAKEFNPRSFSQ, N = wild type.
Setting [14] is: prey ATXN2, TLNPNAKEFNPRSF(averaged) over the two overlapping peptides, P = wild type.
Where [15] appears, read: prey ATXN2, TLNPNAKEFNPRSF(averaged) over the two overlapping peptides, R = wild type.

Like-named read-outs stand apart in the source and are kept apart here.

Consider “TLNPNAKEFNPRSF(averaged) F14K (TLNPNAKEFNPRSK)”, for which the “DMS-derived PSSM value (averaged), position F14” value under setting [1] worked out at 0.01179.
With KSTLNPNAKEFNPRSF N5R (KSTLRPNAKEFNPRSF), the “DMS-derived PSSM value, position N5” value under setting [2] was found to be 0.
Consider KSTLNPNAKEFNPRSF S2A (KATLNPNAKEFNPRSF), for which the “DMS-derived PSSM value, position S2” value under setting [3] amounted to 0.03999.
As to “TLNPNAKEFNPRSF(averaged) S13G (TLNPNAKEFNPRGF)”, the “DMS-derived PSSM value (averaged), position S13” value (prey ATXN2, TLNPNAKEFNPRSF(averaged) over the two overlapping peptides, S = wild type) was 0.08376.
As for KSTLNPNAKEFNPRSF T3E (KSELNPNAKEFNPRSF), the “DMS-derived PSSM value, position T3” value under setting [4] is on record as 0.2365.
With “TLNPNAKEFNPRSFSQ P11L (TLNPNAKEFNLRSFSQ)”, the “DMS-derived PSSM value, position P11” value under setting [5] amounted to 0.02416.
With “TLNPNAKEFNPRSFSQ S13I (TLNPNAKEFNPRIFSQ)”, under setting [6], the “DMS-derived PSSM value, position S13” value is on record as 0.
In the case of “TLNPNAKEFNPRSFSQ R12D (TLNPNAKEFNPDSFSQ)”, under setting [7], the “DMS-derived PSSM value, position R12” value is recorded as 0.05154.
Regarding “TLNPNAKEFNPRSFSQ R12I (TLNPNAKEFNPISFSQ)”, the “DMS-derived PSSM value, position R12” value under setting [7] was 0.04014.
As to “TLNPNAKEFNPRSF(averaged) K7M (TLNPNAMEFNPRSF)”, under setting [8], the “DMS-derived PSSM value (averaged), position K7” value is given as 0.05548.
In the case of KSTLNPNAKEFNPRSF T3I (KSILNPNAKEFNPRSF), the “DMS-derived PSSM value, position T3” value under setting [4] turned out to be 0.1667.
TLNPNAKEFNPRSFSQ A6V (TLNPNVKEFNPRSFSQ): the “DMS-derived PSSM value, position A6” value under setting [9] turned out to be 0.2197.
With “TLNPNAKEFNPRSF(averaged) N10G (TLNPNAKEFGPRSF)”, the “DMS-derived PSSM value (averaged), position N10” value under setting [10] is 0.02059.
Take TLNPNAKEFNPRSFSQ L2H (THNPNAKEFNPRSFSQ): the “DMS-derived PSSM value, position L2” value (prey ATXN2, peptide TLNPNAKEFNPRSFSQ, L = wild type) is listed as 0.
Consider “TLNPNAKEFNPRSF(averaged) F14L (TLNPNAKEFNPRSL)”, for which, under setting [1], the “DMS-derived PSSM value (averaged), position F14” value worked out at 0.193.
On to KSTLNPNAKEFNPRSF P6W (KSTLNWNAKEFNPRSF), for which the “DMS-derived PSSM value, position P6” value under setting [11] is reported as 0.
As to “TLNPNAKEFNPRSFSQ P11N (TLNPNAKEFNNRSFSQ)”, under setting [5], the “DMS-derived PSSM value, position P11” value is 0.04264.
KSTLNPNAKEFNPRSF S2K (KKTLNPNAKEFNPRSF): the “DMS-derived PSSM value, position S2” value under setting [3] came to 0.
On to “TLNPNAKEFNPRSFSQ S13M (TLNPNAKEFNPRMFSQ)”, for which, under setting [6], the “DMS-derived PSSM value, position S13” value turned out to be 0.008683.
“TLNPNAKEFNPRSF(averaged) N10P (TLNPNAKEFPPRSF)”: the “DMS-derived PSSM value (averaged), position N10” value under setting [10] is given as 0.03074.
Turning to “TLNPNAKEFNPRSFSQ F14E (TLNPNAKEFNPRSESQ)”, the “DMS-derived PSSM value, position F14” value under setting [12] is on record as 0.02018.
For the substance “TLNPNAKEFNPRSFSQ R12K (TLNPNAKEFNPKSFSQ)”, the “DMS-derived PSSM value, position R12” value under setting [7] is 0.01776.
With TLNPNAKEFNPRSFSQ T1P (PLNPNAKEFNPRSFSQ), the “DMS-derived PSSM value, position T1” value (prey ATXN2, peptide TLNPNAKEFNPRSFSQ, T = wild type) is on record as 0.04902.
Turning to TLNPNAKEFNPRSFSQ N3V (TLVPNAKEFNPRSFSQ), the “DMS-derived PSSM value, position N3” value under setting [13] came out at 0.
On to KSTLNPNAKEFNPRSF N5V (KSTLVPNAKEFNPRSF), for which the “DMS-derived PSSM value, position N5” value under setting [2] amounted to 0.
KSTLNPNAKEFNPRSF P6S (KSTLNSNAKEFNPRSF): the “DMS-derived PSSM value, position P6” value under setting [11] is given as 0.01358.
With “TLNPNAKEFNPRSF(averaged) K7Y (TLNPNAYEFNPRSF)”, the “DMS-derived PSSM value (averaged), position K7” value under setting [8] was determined as 0.2476.
Consider TLNPNAKEFNPRSFSQ P4M (TLNMNAKEFNPRSFSQ), for which, under setting [5], the “DMS-derived PSSM value, position P4” value was 0.001164.
Take “TLNPNAKEFNPRSF(averaged) N3T (TLTPNAKEFNPRSF)”: under setting [10], the “DMS-derived PSSM value (averaged), position N3” value came out at 0.009966.
On to “TLNPNAKEFNPRSF(averaged) P11I (TLNPNAKEFNIRSF)”, for which the “DMS-derived PSSM value (averaged), position P11” value under setting [14] came out at 0.006686.
In the case of “TLNPNAKEFNPRSF(averaged) F14Y (TLNPNAKEFNPRSY)”, the “DMS-derived PSSM value (averaged), position F14” value under setting [1] was determined as 0.08672.
Take “TLNPNAKEFNPRSFSQ F14S (TLNPNAKEFNPRSSSQ)”: under setting [12], the “DMS-derived PSSM value, position F14” value is 0.004424.
Take KSTLNPNAKEFNPRSF S2D (KDTLNPNAKEFNPRSF): the “DMS-derived PSSM value, position S2” value under setting [3] was 0.01347.
Turning to KSTLNPNAKEFNPRSF N5P (KSTLPPNAKEFNPRSF), the “DMS-derived PSSM value, position N5” value under setting [2] amounted to 0.
For “TLNPNAKEFNPRSFSQ S15A (TLNPNAKEFNPRSFAQ)”, under setting [6], the “DMS-derived PSSM value, position S15” value is on record as 0.02541.
On to TLNPNAKEFNPRSFSQ A6R (TLNPNRKEFNPRSFSQ), for which, under setting [9], the “DMS-derived PSSM value, position A6” value worked out at 0.
On to “TLNPNAKEFNPRSFSQ F14D (TLNPNAKEFNPRSDSQ)”, for which, under setting [12], the “DMS-derived PSSM value, position F14” value stood at 0.0175.
As to “TLNPNAKEFNPRSF(averaged) N3E (TLEPNAKEFNPRSF)”, the “DMS-derived PSSM value (averaged), position N3” value under setting [10] worked out at 0.
On to KSTLNPNAKEFNPRSF N7Y (KSTLNPYAKEFNPRSF), for which, under setting [2], the “DMS-derived PSSM value, position N7” value was 0.00548.
For “TLNPNAKEFNPRSFSQ S13T (TLNPNAKEFNPRTFSQ)”, under setting [6], the “DMS-derived PSSM value, position S13” value is 0.105.
Turning to “TLNPNAKEFNPRSF(averaged) N3Y (TLYPNAKEFNPRSF)”, under setting [10], the “DMS-derived PSSM value (averaged), position N3” value is listed as 0.00806.
As to “KSTLNPNAKEFNPRSF F11R (KSTLNPNAKERNPRSF)”, for the setting “prey ATXN2, peptide KSTLNPNAKEFNPRSF, F = wild type”, the “DMS-derived PSSM value, position F11” value was 0.
“TLNPNAKEFNPRSF(averaged) P4M (TLNMNAKEFNPRSF)”: the “DMS-derived PSSM value (averaged), position P4” value under setting [14] is reported as 0.0005819.
Take KSTLNPNAKEFNPRSF T3P (KSPLNPNAKEFNPRSF): the “DMS-derived PSSM value, position T3” value under setting [4] is recorded as 0.005473.
As to “TLNPNAKEFNPRSF(averaged) P11A (TLNPNAKEFNARSF)”, the “DMS-derived PSSM value (averaged), position P11” value under setting [14] was 0.00277.
For the substance TLNPNAKEFNPRSFSQ F9W (TLNPNAKEWNPRSFSQ), the “DMS-derived PSSM value, position F9” value under setting [12] is 0.6528.
For “KSTLNPNAKEFNPRSF R14V (KSTLNPNAKEFNPVSF)”, where the note is “prey ATXN2, peptide KSTLNPNAKEFNPRSF, R = wild type”, the “DMS-derived PSSM value, position R14” value is reported as 0.03521.
On to KSTLNPNAKEFNPRSF P6K (KSTLNKNAKEFNPRSF), for which the “DMS-derived PSSM value, position P6” value under setting [11] was found to be 0.
Turning to “TLNPNAKEFNPRSFSQ N10K (TLNPNAKEFKPRSFSQ)”, the “DMS-derived PSSM value, position N10” value under setting [13] amounted to 0.01052.
As to “KSTLNPNAKEFNPRSF P13G (KSTLNPNAKEFNGRSF)”, the “DMS-derived PSSM value, position P13” value under setting [11] is listed as 0.05991.
“TLNPNAKEFNPRSFSQ S13R (TLNPNAKEFNPRRFSQ)”: the “DMS-derived PSSM value, position S13” value under setting [6] is on record as 0.001962.
Regarding “TLNPNAKEFNPRSFSQ N10A (TLNPNAKEFAPRSFSQ)”, the “DMS-derived PSSM value, position N10” value under setting [13] turned out to be 0.03895.
As for TLNPNAKEFNPRSFSQ N3P (TLPPNAKEFNPRSFSQ), the “DMS-derived PSSM value, position N3” value under setting [13] is listed as 0.
Regarding TLNPNAKEFNPRSFSQ K7M (TLNPNAMEFNPRSFSQ), under “prey ATXN2, peptide TLNPNAKEFNPRSFSQ, K = wild type”, the “DMS-derived PSSM value, position K7” value is recorded as 0.0004181.
For TLNPNAKEFNPRSFSQ N5R (TLNPRAKEFNPRSFSQ), under setting [13], the “DMS-derived PSSM value, position N5” value was 0.004201.
As to TLNPNAKEFNPRSFSQ N5H (TLNPHAKEFNPRSFSQ), the “DMS-derived PSSM value, position N5” value under setting [13] is reported as 0.04051.
“TLNPNAKEFNPRSF(averaged) R12G (TLNPNAKEFNPGSF)”: the “DMS-derived PSSM value (averaged), position R12” value under setting [15] came out at 0.06327.
Turning to “TLNPNAKEFNPRSF(averaged) R12N (TLNPNAKEFNPNSF)”, the “DMS-derived PSSM value (averaged), position R12” value under setting [15] is on record as 0.02727.
In the case of “TLNPNAKEFNPRSF(averaged) N5E (TLNPEAKEFNPRSF)”, the “DMS-derived PSSM value (averaged), position N5” value under setting [10] is 0.01598.
Take TLNPNAKEFNPRSFSQ P4V (TLNVNAKEFNPRSFSQ): the “DMS-derived PSSM value, position P4” value under setting [5] came to 0.4281.
KSTLNPNAKEFNPRSF P6D (KSTLNDNAKEFNPRSF): the “DMS-derived PSSM value, position P6” value under setting [11] turned out to be 0.
Consider “TLNPNAKEFNPRSF(averaged) E8I (TLNPNAKIFNPRSF)”, for which the “DMS-derived PSSM value (averaged), position E8” value (prey ATXN2, TLNPNAKEFNPRSF(averaged) over the two overlapping peptides, E = wild type) is 0.006482.
On to “TLNPNAKEFNPRSF(averaged) L2W (TWNPNAKEFNPRSF)”, for which the “DMS-derived PSSM value (averaged), position L2” value (prey ATXN2, TLNPNAKEFNPRSF(averaged) over the two overlapping peptides, L = wild type) was 0.07274.
“TLNPNAKEFNPRSFSQ F14Y (TLNPNAKEFNPRSYSQ)”: under setting [12], the “DMS-derived PSSM value, position F14” value was 0.07249.
